The source of these data is patent publication US7812047B2, “4-imidazolines” (Hoffman-La Roche Inc., priority 2007, dated 2010).

The assay has as its target T1, TAAR1 (Mus musculus, UniProt Q923Y8).
T1 construct: expressed in transfected cells; host or cells: HEK293 cells (ATCC CRL-1573), stably transfected with pIRESneo2 expression plasmid; membranes prepared
As to the kind of experiment: Radioligand binding assay on membranes of HEK293 cells stably expressing TAAR1. Particulars: for Ki: mouse TAAR1, radioligand [3H]-rac-2-(1,2,3,4-tetrahydro-1-naphthyl)-2-imidazoline, 4° C., 30 min. The method, then: For the construction of expression plasmids the coding sequences of human, rat and mouse TAAR 1 were amplified from genomic DNA essentially as described by Lindemann et al.. The Expand High Fidelity PCR System (Roche Diagnostics) was used with 1.5 mM Mg^2+ and purified PCR products were cloned into pCR2.1-TOPO cloning vector (Invitrogen) following the instructions of the manufacturer. PCR products were subcloned into the pIRESneo2 vector (BD Clontech, Palo Alto, Calif.), and expression vectors were sequence verified before introduction in cell lines.
HEK293 cells (ATCC # C.RL-1573) were cultured essentially as described Lindemann et al. (2005). For the generation of stably transfected cell lines HEK293 cells were transfected with the pIRESneo2 expression plasmids containing the TAAR coding sequences (described above) with Lipofectamine 2000 (Invitrogen) according to the instructions of the manufacturer, and 24 hrs post transfection the culture medium was supplemented with 1 mg/ml G418 (Sigma, Buchs, Switzerland). After a culture period of about 10 d clones were isolated, expanded and tested for responsiveness to trace amines (all compounds purchased from Sigma) with the cAMP Biotrak Enzyme immunoassay (EIA) System (Amersham) following the non-acetylation EIA procedure provided by the manufacturer.
Cells at confluence were rinsed with ice-cold phosphate buffered saline without Ca^2+ and Mg^2+ containing 10 mM EDTA and pelleted by centrifugation at 1000 rpm for 5 min at 4° C. The pellet was then washed twice with ice-cold phosphate buffered saline and cell pellet was frozen immediately by immersion in liquid nitrogen and stored until use at −80° C. Cell pellet was then suspended in 20 ml HEPES-NaOH (20 mM), pH 7.4 containing 10 mM EDTA, and homogenized with a Polytron (PT 3000, Kinematica) at 10,000 rpm for 10 s. The homogenate was centrifuged at 48,000×g for 30 min at 4° C. and the pellet resuspended in 20 ml HEPES-NaOH (20 mM), pH 7.4 containing 0.1 mM EDTA (buffer A), and homogenized with a Polytron at 10,000 rpm for 10 s. The homogenate was then centrifuged at 48,000×g for 30 min at 4° C. and the pellet resuspended in 20 ml buffer A, and homogenized with a Polytron at 10,000 rpm for 10 s. Protein concentration was determined by the method of Pierce (Rockford, Ill.). The homogenate was then centrifuged at 48,000×g for 10 min at 4° C., resuspended in HEPES-NaOH (20 mM), pH 7.0 including MgCl2 (10 mM) and […] homogenized with a Polytron at 10,000 rpm for 10 s.
Binding assay was performed at 4° C. in a final volume of 1 ml, and with an incubation time of 30 min. The radioligand [^3H]-rac-2-(1,2,3,4-tetrahydro-1-naphthyl)-2-imidazoline was used at a concentration equal to the calculated Kd value of 60 nM to give a bound at around 0.1% of the total added radioligand concentration, and a specific binding which represented approximately 70-80% of the total binding. Non-specific binding was defined as the amount of [^3H]-rac-2-(1,2,3,4-tetrahydro-1-naphthyl)-2-imidazoline bound in the presence of the appropriate unlabelled ligand (10 μM). Competing ligands were tested in a wide range of concentrations […]. […] Each experiment was performed in duplicate. All incubations were terminated by rapid filtration through UniFilter-96 plates (Packard Instrument Company) and glass filter GF/C, pre-soaked for at least 2 h in polyethylenimine 0.3%, and using a Filtermate 96 Cell Harvester (Packard Instrument Company). The tubes and filters were then washed 3 times with 1 ml aliquots of cold buffer B. Filters were not dried and soaked in Ultima gold (45 μl/well, Packard Instrument Company) and bound radioactivity was counted by a TopCount Microplate Scintillation Counter (Packard Instrument Company).

T1 sequence (Q923Y8 whole entry): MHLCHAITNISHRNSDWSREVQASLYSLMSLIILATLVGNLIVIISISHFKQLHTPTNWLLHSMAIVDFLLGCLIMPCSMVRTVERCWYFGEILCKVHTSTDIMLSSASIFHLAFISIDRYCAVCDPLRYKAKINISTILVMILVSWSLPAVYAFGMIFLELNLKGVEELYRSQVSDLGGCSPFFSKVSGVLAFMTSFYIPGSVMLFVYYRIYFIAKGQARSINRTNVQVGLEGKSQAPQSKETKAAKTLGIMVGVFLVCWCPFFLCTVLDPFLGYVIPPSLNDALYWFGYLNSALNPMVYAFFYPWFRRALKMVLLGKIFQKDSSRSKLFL

Compound `CN(CC1CN=CN1)c1ccccc1` (stereo not shown) [Example 7, (4,5-Dihydro-3H-imidazol-4-ylmethyl)-methyl-phenyl-amine or tautomer] showed a Ki of 0.182 µM.

With `c1ccc2c(c1)CCCC2C1=NCCN1` (racemic) [[^3H]-rac-2-(1,2,3,4-tetrahydro-1-naphthyl)-2-imidazoline, reference compound], the Kd (radioligand binding assay, species not stated, read-out: calculated Kd value of the radioligand) was 60 nM.

Compound `C1=NC(Cc2cccc3ccccc23)CN1` (racemic) [Example 2, rac-4-Naphthalen-1-ylmethyl-4,5-dihydro-1H-imidazole or tautomer] registered a Ki of 0.005 µM. This lies in the single-digit nanomolar range.

As for `CCc1cccc2cccc(CC3CNC=N3)c12` (racemic) [Example 6, (RS)-4-(8-Ethyl-naphthalen-1-ylmethyl)-4,5-dihydro-1H-imidazole or tautomer], the Ki turned out to be 0.078 µM.

Regarding `CCN(CC1CN=CN1)c1ccccc1` (racemic) [Example 4, rac-(4,5-Dihydro-3H-imidazol-4-ylmethyl)-ethyl-phenyl-amine or tautomer], the Ki amounted to 0.253 µM.

`C1=NC(CCc2ccccc2)CN1` (racemic) [Example 3, rac-4-Phenethyl-4,5-dihydro-1H-imidazole or tautomer] registered an inhibition constant Ki of 0.06 µM.

For the compound `Clc1ccc(CCC2CNC=N2)cc1` (racemic) [Example 10, rac-4-[2-(4-Chloro-phenyl)-ethyl]-4,5-dihydro-1H-imidazole or tautomer], affinity was put at a Ki of 0.327 µM.

One may read the Ki as the equilibrium dissociation constant of an inhibitor or competing ligand from its target. Broadly, the Kd is the constant that tells how readily two partners part at equilibrium.
